# pIC50, pKi: −log10 of the molar value.
# Assays:
# mice [1] = test: CFA-induced mechanical hypersensitivity, Von Frey filament test; format: in vivo; conditions: 5 mg/kg, s.c., 30 minutes
# Experimental: Mechanical hypersensitivity was evaluated after CFA intraplantar injection by using the Von Frey test. […] Mechanical hypersensitivity was performed 24 hrs later (pre-treatment) CFA intraplantar injection into the left hind paw (ipsilateral paw). […] The ligand effects (E55888 or Serodolin) were evaluated 30 min and 24 hrs after in the ipsilateral paw. Data are means±SEM of values obtained in 2 independent experiments (n=8 to 10 per group). ****p<0.0001 ***p<0.001 **p<0.01 *p<0.05. Statistical analysis was done using Kruskal Wallis test.
# Von Frey filament test. Before inducing peripheral inflammation, each animal was tested on the left hind paw with Von Frey Filament to determine its basal sensibility level. Then, peripheral inflammation was induced by intraplantar injection of Complete Freund's Adjuvant (CFA-10 μL) (F5881, Sigma) in the left hind paw (ipsilateral paw) and mechanical allodynia was measure (pre-treatment). Mice were divided into two groups, one with E55888 (5 mg/kg) and the other with Serodolin (5 mg/kg) subcutaneous injections in the ipsilateral paw. Both in absence (−) or in presence (+) of the 5-HT7R antagonist SB269960 (5 mg/kg), intraperitoneally, 20 min before the agonist injections (8-10 mice per group).
# The inventors wanted to evaluate the effect of Serodolin on mechanical hypersensitivity in comparison with E-55888 after CFA injection.
# [2] = Pharmacokinetic study in plasma and brain; format: in vivo, C57BL/6 mice; conditions: 5 mg/kg, subcutaneous
# Experimental: FIG. 20: Pharmacokinetic study of E55888 and Serodolin. Concentration-time profile of E55888 (reference agonist) and Serodolin in plasma (A) and brain (B) following subcutaneous injection of a unique dose 5 mg/kg of each compound in C57BL/6 mice. Data represent the mean concentration±SEM of n=4 each time point.
# The pharmacokinetic study was undertaken to evaluate and compare the quantity of Serodolin and E55888 in plasma and brain samples from C57BL/6 mice (Janvier, Le Genest France) at several time points. Seven weeks old C57BL/6 mice (n=4 animals per group) received by subcutaneous injection a unique dose (5 mg/kg) of Serodolin or E55888 (U103013S, Achemblock). Control group received vehicle (solution of 20% DMSO and 5% Tween 80 diluted in NaCl). […] Blank vehicle mouse brains homogenates and plasma were used to established standard curves of Serodolin or E55888. […] Study samples, brains homogenates and plasma, were prepared for protein precipitation by adding 85 μL of acetonitrile+5-CT to 20 μL of samples. LC-HRMS analysis for PK studies were performed on a maXis Q-TOF mass spectrometer (Bruker, Bremen, Germany) coupled to an U3000 RSLC UHPLC system (Dionex, Germering, Germany). Separation was obtained using an Acquity UPLC BEH C18 column (2.1×50 mm; 1.7 μm) (Waters, Saint-Quentin-en-Yvelines, France) thermostated at 40° C. with a gradient of water (solvent A) and acetonitrile (solvent B), both acidified with 0.1% formic acid at 500 μL/min. […] The samples were randomized prior analysis; 1.25 μL were injected for plasma and 8 μL for brains. […] Area were integrated from extracted ion chromatograms (EIC) of [M+H]+ ions using QuantAnalysis 4.4 software (Bruker) with a tolerance of ±0.005 u.
# The pharmacokinetics profile of both compounds were evaluated. The inventors used liquid chromatography tandem mass spectrometry (UPLC-MS/MS) method to perform PK study and measure Serodolin vs E55888 levels in vivo.
# mice [3] = test: Tail immersion test (50° C.); format: in vivo; conditions: 5-HT7R KO mice, subcutaneous
# Experimental: (A) Experimental protocol summary used. (B) Mice were subcutaneously injected with two different doses of the 5-HT7 receptor agonist Serodolin, 1 mg/kg or 5 mg/kg and 10 min later their tail extremity was immersed in water heated to 50 degrees. […] The effect of injections (Serodolin or E55888) was evaluated at TO, 30 min and 60 min corresponding to 10, 40 and 70 min after compound injections. […] Their tail extremity was immersed in water heated to 50 degrees at TO (E) or 30 min later (F) corresponding to 10 and 40 min after agonist injections. […] Statistical analysis was done using Tukey's multiple comparison test.
# Tail immersion test. Nociception was assessed with the tail immersion test, 10 min and 40 min after E55888 (5 mg/kg) or Serodolin (5 mg/kg) tail subcutaneous injections, in the water heated to 50° C. Vehicle (20% DMSO, 5% Tween 80 diluted in PBS solution) was used as a control group. These different groups were intraperitoneally injected (+) or not (−) with the 5-HT7R antagonist SB269960 (5 mg/kg) 10 min before the ligand injection. The tail withdrawal latency (s) was measured for each animal.
# human 5-HT7a receptor = human 5-HT7a receptor (Homo sapiens (Human), UniProt P34969); test: Radioligand binding competition, filtration binding assay, 5-HT7a; conditions: affinity on 5-HT7 receptor, table of new compounds
# Chain of human 5-HT7a receptor (P34969 other isoform, or with tags, fused parts or gaps): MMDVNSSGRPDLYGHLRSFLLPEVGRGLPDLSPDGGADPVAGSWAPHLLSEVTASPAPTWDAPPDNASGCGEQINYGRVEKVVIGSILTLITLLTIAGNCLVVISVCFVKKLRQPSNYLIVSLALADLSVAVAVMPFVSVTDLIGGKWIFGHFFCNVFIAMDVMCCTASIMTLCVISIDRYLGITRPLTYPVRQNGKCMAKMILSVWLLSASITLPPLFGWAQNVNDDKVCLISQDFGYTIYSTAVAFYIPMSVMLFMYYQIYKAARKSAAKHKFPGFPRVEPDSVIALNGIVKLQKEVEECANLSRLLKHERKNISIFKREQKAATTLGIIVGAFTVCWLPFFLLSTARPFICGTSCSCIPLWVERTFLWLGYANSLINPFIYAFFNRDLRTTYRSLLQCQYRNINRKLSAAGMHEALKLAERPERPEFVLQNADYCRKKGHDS
# Experimental: FIG. 14: Testing of 8 molecules for radioligand binding competition activity on recombinant human 5-HT1A, 5-HT2A, 5-HT2Cedited, 5-HT6, 5-HT7 and D2(long) receptors using filtration binding assays.
# Radioligand Binding experiments were conducted with Epics Therapeutics membrane preparations. Receptor accession numbers, cellular background and reference compounds are shown in this table.
# Reference values thus obtained for the test were compared to historical values obtained from the same receptor and used to validate the experimental session. For replicate determinations, the maximum variability tolerated in the test was of +/−20% around the average of the replicates.
# Dose-response data from test compounds were analyzed with XLfit (IDBS) software using nonlinear regression applied to a sigmoidal dose-response model and the following equation: • XL Fit fit Model 203: 4 Parameter Logistic Model • A: Bottom • B: TOP • C: LogEC50 • D: Hill
# C57BL/6 mice = test: Spared Nerve Injury (SNI) neuropathic pain model, Von Frey; conditions: s.c.
# Experimental: Pregabalin, vehicle or compounds solutions are subcutaneously administrated for 8 consecutive days. • (A) Mechanical response threshold after the first administration (D+10). […] Positive control animals were treated with Pregabalin (5 mg/kg, sc). Statistical differences are indicated compared to vehicle group (Two-way RM ANOVA followed by Bonferroni post-hoc test: ***p<0.001, ** p<0.01, * p<0.05). […] Positive control animals were treated with Pregabalin (5 mg/kg, sc). Statistical differences are indicated compared to vehicle group (Two-way RM ANOVA followed by Bonferroni post-hoc test: ***p<0.001, ** p<0.01, * p<0.05). […] (Two-way RM ANOVA followed by Bonferroni post-hoc test: ***p<0.001, ** p<0.01, * p<0.05)
# MOA51 and Serodolin (AIC01) compounds were diluted in NDT solution (NaCl 0.9%—DMSO 20%—Tween80 5%). […] AIC01 was resuspended at 0.5 mg/mL and administrated at a ratio of 100 μl per 10 g (dose of 5 mg/kg).
# Experiment starts with 8 weeks old male C57B16J mice (from Charles River). Study was performed on 40 mice (2 mice were excluded during the study due to health guidelines) divided in 4 randomized groups. • Group A: s.c. injection at 5 mg/kg of pregabalin. • Group B: s.c. injection at 0.5 mg/kg of MOA51. • Group C: s.c. injection at 5 mg/kg of Serodolin (AIC01). • Group D: s.c. injection of NDT solution (referred as Vehicle hereafter).
# Compounds solutions, pregabalin and vehicle were subcutaneously administrated (100 μl/10 g) for 9 consecutive days, starting 10 days after surgery. Ligature and transection of the common peroneal and tibial distal branches of the sciatic nerve was made leaving the sural branch intact. 7 days post-surgery, a decrease of threshold response to Von Frey filaments of ipsilateral hind-paw was observed corresponding to neuropathic pain apparition (mechanical allodynia). Mechanical threshold response of mice were measured with calibrated Von Frey filaments using the up/down method. Experimenter was blind to mice treatment. Measures are performed as follow: one baseline measure before surgery, one measure at D+10, D+12, D+14, D+16 and D+18 before drug's administration, and 1 h, 2 h post-drug administration. A supplementary measure 4 h post-drug administration was performed at D+10 and D+18.
# Two-way RM ANOVA (followed by Bonferroni post-hoc test) was used to analysed time course response at D+10 and D+18. Area under the curve was determined with the 1 h and 2 h post-drug administration measures to investigated tolerance of repeated administration of compounds
# mice [4] = test: Acetic acid-induced writhing test; format: in vivo
# Experimental: (§1) FIG. 9: Analgesic effect of Serodolin in the acetic acid-induced writhing test. In this test, nociception was induced by an intraperitoneally injection (ip) of 0.1 ml/10 g acid acetic solution (10 ml/kg) in peripheral origin. Serodolin at increasing dosage was administrated by oral (po), intravenous (iv) or subcutaneous (sc) route before acid acetic injection (upper panel). Positive control animals were pretreated morphine (3 mg/kg, sc) 10 minutes before acetic acid. Five minutes after i.p. injection of acetic acid the number of writhing was recorded for 10 minutes. Data mean±SEM of values obtained from a representative experiment (n=10 animals/group). ****p<0.0001 ***p<0.001 **p<0.01 *p<0.05 as compared with the control group (Vh).
# as §1, with “16:” for “9:”, “MOA51” for “Serodolin”, “i.p.injection” for “i.p. injection”, “animals/group).” for “animals/group). ****p<0.0001 ***p<0.001”, “**p<0.01” for “**p<0.01 *p<0.05”
# Writhing tests: Mice (25-35 g). Groups of mice (n=10) received by oral, subcutaneous or intravenous route Serodolin at different doses (0.1-10 mg/kg) one hour before intraperitoneally injection of 1% acetic acid in a volume of 10 ml/kg. Control group received vehicle (10 ml/kg, solution of 20% DMSO and 5% tween 80). The test was carried out 5 minutes later after acid acetic injection. The characteristic writhing responses have been observed individually and counted for 10 minutes.
# Analgesic activity was first evaluated using the acetic acid abdominal constriction test (writhing test), a chemical model of visceral pain. We evaluated the dose-response effect of Serodolin following single oral, intravenous and subcutaneous administration of the compound one hour before injection of acetic acid.
# Analgesic activity was evaluated using the acetic acid abdominal constriction test (writhing test), a chemical model of visceral pain. We evaluated the dose-response effect of MOA51 following single oral, intravenous and subcutaneous administration of the compound one hour before injection of acetic acid. MOA51 administered by the oral route induced statistically significant dose-dependent decreases in the number of writhings at and above the dose of 1 mg/kg. By the intravenous route, MOA51 induced dose-dependent decreases in the number of writhings at and above the dose of 0.1 mg/kg.
# HEK-293 mock cells = test: Control in mock-transfected HEK-293 cells (cAMP, ERK phosphorylation); format: cell-based, human
# Experimental: ERK phosphorylation was monitored by western blotting after treatment of cells with 10 μM of ligands at different times ranging from 2 to 60 minutes. […] The kinetics of ERK phosphorylation elicited by 5-CT, Serodolin and MOA-51 were very similar: activation was fast and transient, and reached a pick between 2 and 7 minutes after drug exposure. However, ERK phosphorylation-induced by Serodolin and MOA-51 was more protracted compared to 5-CT, the reference agonist.
# Sprague-Dawley male rats = test: Formalin induced inflammatory pain model; format: in vivo; conditions: single s.c., Serodolin 10 mg/kg, MOA51 1 mg/kg, morphine
# Experimental: FIG. 18: Effect of a single administration of Serodolin (AIC01) or MOA51 in the formalin test in rats. Effect of a single subcutaneous administration of Serodolin (AIC01) or MOA51 in the formalin test in rats. In this test, Sprague-Dawley male rats received unilateral injection of a 2.5% formalin solution (50 μl) into the plantar aspect of the hindpaw on testing day (i.e. D0). Control group received Vehicle (20% DMSO/5% Tween 80/NaCl). Serodolin was subcutaneously (sc) administrated at 10 mg/kg and MOA51 at 1 mg/kg. Positive control animals were treated with morphine (3 mg/kg, sc). Paw licking time was measured. Results are expressed as mean±s.e.m. Percentage are expressed as decreased as compared to the vehicle-treated group and represented as figure (B). ***: p<0.001 as compared to the vehicle-treated group, Bonferroni's test after significant Two-way Repeated Measures ANOVA. NS: Non-significant.
# Sprague-Dawley male rats (n=10 rats per group) received unilateral injection of a 2.5% formalin solution (50 μl) into the plantar aspect of the hindpaw on testing day (i.e. D0). Experience was separated into 4 groups of animals. Formalin animals+vehicle-treated group; […]—Formalin animals+Sponsor's Serodolin (10 mg/kg), s.c.—Formalin animals+Sponsor's MOA51 (1 mg/kg), s.c.—Formalin animals+internal validator-treated group (Morphine at 4 mg/Kg, s.c.). Single subcutaneous administration of the Vehicle and Sponsor's Compound 30 min (or other timing depending on Sponsor's design) before formalin injection on testing day (i.e. D0)/Subcutaneous administration of Morphine 30 min before formalin injection on testing day (i.e. D0). Hindpaw licking time recorded in consecutive 5 minutes periods from 0 to 5 minutes (early phase) and 17 to 27 minutes (late phase) after formalin injection.
# We evaluated the effect of Serodolin as well as MOA51 in rats in the formalin test, an acute and tonic pain model based on the use of a chemical stimulus. Subcutaneous injection of formalin into the right hindpaw produces a biphasic painful response of increasing and decreasing intensity for about 30 minutes after the injection. […] Although not significant, Serodolin, MOA51 and morphine have an inhibitory effect (−40%, −35% and −57% respectively) during the early phase.
# mouse = test: Effect on body temperature; format: in vivo
# Description: FIG. 13: Evaluation of the effect of Serodolin on body temperature.
# FIG. 17: Evaluation of the effect of MOA51 on body temperature. Results expressed in ° C.
# The time course of the effect of Serodolin on the body temperature has been evaluated in the mouse following intravenous administration.
structure (smiles),measurement,setting,value
"Cc1nn(C)c(C)c1-c1cccc(CCN(C)C)c1 [E55888, reference compound]","CFA-induced mechanical hypersensitivity, 30 minutes after administration",mice [1],reversed the CFA-induced mechanical hypersensitivity
same,passage of the brain blood barrier,[2],ability to pass the brain blood barrier
same,time of maximum of detection,[2]; both in plasma and brain,15 to 30 min
same,maximum of detection in brain,[2]; brain,1.4 ± 0.2 µg/mL
same,maximum of detection in plasma,[2]; plasma,6.1 ± 0.5 µg/mL
same,time after which eliminated / undetectable,[2]; plasma and brain,120 min
same,anti-nociceptive effect in 5-HT7R KO mice,mice [3],did not exert any anti-nociceptive effect
same,pIC50,human 5-HT7a receptor,8.57
same,pKi,human 5-HT7a receptor,8.73
O=C(c1ccc(F)cc1)C1CCN(Cn2c(=O)[nH]c3ccccc32)CC1 [MOA51],tolerance after repetitive administration (AUC),C57BL/6 mice; 9 consecutive days,didn't present any tolerance effect after repetitive administration
same,mechanical response threshold vs vehicle,"C57BL/6 mice; first (D+10) and last (D+18) administration, 1 h and 2 h",significant increase in the mechanical threshold response
same,"writhings at the top dose, intravenous route","mice [4]; 10 mg/kg, intravenous",no further acetic acid-induced writhings were observed
same,"dose giving decrease in number of writhings, intravenous route","mice [4]; intravenous, one hour before acetic acid",≥ 0.1 mg/kg
same,"dose giving significant decrease in number of writhings, oral route","mice [4]; oral, one hour before acetic acid",≥ 1 mg/kg
same,"dose giving significant decrease in number of writhings, subcutaneous route","mice [4]; s.c., one hour before acetic acid",≥ 1 mg/kg
same,"writhings at the top dose, subcutaneous route","mice [4]; top dose, subcutaneous",absence of acetic acid-induced writhings
same,ERK phosphorylation in HEK-293 mock cells,HEK-293 mock cells,"neither Serodolin, nor MOA-51 were able to induce ERK phosphorylation"
same,"inhibitory effect on paw licking, early phase","Sprague-Dawley male rats; 0 to 5 minutes, not significant",−35%
same,"inhibition of licking, late phase",Sprague-Dawley male rats; 17 to 27 minutes,−78%
same,"decrease in body temperature, Emax","mouse; 0.1 mg/kg, at 30 min, not statistically significant",−2.3 °C
same,"decrease in body temperature, Emax","mouse; 0.3 mg/kg, at 30 min",−5.4 °C
same,"decrease in body temperature, Emax","mouse; 1 mg/kg, at 180 min",−7.2 °C
